Laboratory results from paper PMC5512002 (Cellular signalling, 2017).

Target: T1, GPR55 (Rattus norvegicus, UniProt F1MAK4)
T1 sequence (F1MAK4 1-319): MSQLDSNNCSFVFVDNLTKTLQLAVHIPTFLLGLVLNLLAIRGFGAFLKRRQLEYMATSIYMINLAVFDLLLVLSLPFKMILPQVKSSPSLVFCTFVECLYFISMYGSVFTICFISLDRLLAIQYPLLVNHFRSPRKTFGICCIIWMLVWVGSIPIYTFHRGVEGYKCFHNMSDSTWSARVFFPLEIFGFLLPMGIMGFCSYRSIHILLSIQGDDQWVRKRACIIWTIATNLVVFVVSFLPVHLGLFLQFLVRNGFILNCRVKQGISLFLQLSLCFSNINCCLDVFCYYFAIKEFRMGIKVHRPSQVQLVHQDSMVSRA
Assay: inhibition of uptake of fluorescent GPR55 ligand T1117 in live C6 cells
Assay type: cell-based

Which IC50 does the source give for `COc1ccc(C[C@@H](C)NC[C@H](O)c2cc(O)cc(O)c2)c2ccccc12` [(R,R′)-MNF] here?
The IC50 was 320 nM.
